According to patent publication US8871899B2, “Control of viral-host membrane fusion with hydrogen bond surrogate-based artificial helices” (priority 2007, dated 2014):
Where a SMILES comes first, the peptide text is derived from it. Where no end group is shown, it is not given here. The star is where a group is joined. 4‑pentenoyl = C=CCCC(=O)*

Assays:
[1] = tested on: IZN17 (stable model of the gp41 N-terminal three strand coiled-coil); experiment: Fluorescence polarization-based competitive binding assay (displacement of fluorescein-labeled peptide 12 from IZN17); parameters: species or system HIV-1; conditions: for Binding to IZN17, result in words: fluorescence polarization competition with probe 12
[2] = tested on: CHO[HIVe] (clone 7d2) cells expressing HXB2 envelope and tat cocultured with U373-MAGI cells; assay type: cell-based, HIV-1
Experimental: Cell-cell fusion (i.e., syncytium formation) was assayed by coculturing CHO[HIVe] (clone 7d2) cells expressing HXB2 envelope and tat with U373-MAGI cells (M. Emerman and A. Geballe, National Institutes of Health AIDS Research and Reference Reagent Program) in the presence of different concentrations of peptides 1-10. Cell fusion allows the expression of nuclear β-galactosidase from the U373-MAGI indicator cell line and can be quantitated by monitoring β-galactosidase activity. After an overnight incubation at 37° C. after coculture, β-galactosidase enzymatic activity was measured with the Mammalian β-galactosidase Chemiluminescent Assay Kit (Gal-Screen from Applied Biosystems). The peptide inhibitor concentrations at which activities were reduced by 50% (IC50) relative to control samples lacking peptide inhibitor were calculated by fitting data to the variable-slope-sigmoid equation using the Prism program.
Cell-cell fusion (i.e., syncytium formation) was assayed by co-culturing CHO[HIVe] […] Cell fusion allows the expression of nuclear β-galactosidase from the U373-MAGI indicator cell line and can be quantitated by monitoring β-galactosidase activity.

[3] = target: IZN17 (stable model of the gp41 N-terminal three strand coiled-coil); experiment: Saturation binding of fluorescein-labeled peptide 12 with IZN17 (fluorescence polarization); parameters: species or system HIV-1; conditions: saturation binding curve, PBS buffer at 25° C.
Experimental: FIG. 14 is a graph showing the saturation binding curve of fluorescein-labeled peptide 12 with IZN17 in PBS buffer at 25° C.
The relative affinity of peptides 1-10 for IZN17 (i.e., peptide 11) was determined using a fluorescence polarization-based competitive binding assay (Eckert & Kim, “Design of Potent Inhibitors of HIV-1 Entry from the gp41 N-Peptide Region,” Proc. Nat'l Acad. Sci. U.S.A. 98:11187-92 (2001); Stephens et al., “Inhibiting HIV Fusion with a β-Peptide Foldamer,” J. Am. Chem. Soc. 127:13126-7 (2005), which are hereby incorporated by reference in their entirety) with fluorescein-labeled peptide 12, shown in FIG. 13. FIG. 14 is a graph showing the saturation binding curve of fluorescein-labeled peptide 12 with IZN17 in PBS buffer at 25° C.
A previously described fluorescence polarization assay was utilized to determine the in vitro binding affinity of unconstrained peptides and HBS helices for a stable model of the gp41 N-terminal three strand coiled-coil, IZN17, which contains the binding site for residues W628, W631, and 1635 (see Example 3, supra) (Eckert & Kim, “Design of Potent Inhibitors of HIV-1 Entry from the gp41 N-Peptide Region,” Proc. Nat'l Acad. Sci. U.S.A. 98:11187-92 (2001), which is hereby incorporated by reference in its entirety). […]

[4] = Circular dichroism spectroscopy (helicity); assay type: physicochemical; conditions: 10% trifluoroethanol in PBS buffer
Experimental: CD spectra were recorded on an AVIV 202SF CD spectrometer equipped with a temperature controller using 1 mm length cells and a scan speed of 5 nm/min. The spectra were averaged over 10 scans with the baseline subtracted from analogous conditions as that for the samples. The samples were prepared in 0.1× phosphate buffered saline (13.7 mM NaCl, 1 mM phosphate, 0.27 mM KCl, pH 7.4), containing 10% trifluoroethanol, with the final peptide concentration of 50-100 μM. The concentrations of unfolded peptides were determined by the UV absorption of the tyrosine residue at 276 nm in 6.0 M guanidinium hydrochloride aqueous solution. The helix content of each peptide was determined from the mean residue CD at 222 nm, [θ]222 (deg cm^2 dmol^−1) corrected for the number of amino acids. Percent helicity was calculated from the ratio [θ]222/[θ]max, where [θ]max=(−44000+250T)(1−k/n), with k=4.0 and n=number of residues. For details on θmax calculations for HBS helices, see Wang et al., “Evaluation of Biologically Relevant Short α-Helices Stabilized by a Main-chain Hydrogen-bond Surrogate,” J. Am. Chem. Soc. 128:9248-56 (2006), which is hereby incorporated by reference in its entirety.
It was conjectured that stabilization of this peptide in helical conformation with the HBS approach may increase its helicity and affinity for IZN17. […]

[5] = tested on: CHO[HIVe] (clone 7d2) cells expressing HXB2 envelope and tat cocultured with U373-MAGI cells; conditions: literature report; cited from earlier work

XMTWMEWDREINNYT ({4‑pentenoyl}-MTWMEWDREINNYT; staple (positions not given here); also: hydrogen bond surrogate, N-allyl residue position not given here) [compound 2]
Binding to IZN17, result in words [1]: did not bind the target protein with higher affinity

CC[C@H](C)[C@H](NC(=O)[C@H](CCCCN)NC(=O)[C@H](CCCCN)NC(=O)[C@@H](NC(=O)[C@H](Cc1ccc(O)cc1)NC(=O)[C@H](CCC(=O)O)NC(=O)[C@H](CCC(=O)O)NC(=O)[C@@H](NC(=O)[C@H](CCCCN)NC(=O)[C@H](CCCCN)NC(=O)[C@H](CC(=O)O)NC(=O)[C@H](Cc1c[nH]c2ccccc12)NC(=O)[C@H](CCC(=O)O)NC(=O)[C@H](CCC(=O)O)NC(=O)[C@H](Cc1c[nH]c2ccccc12)NC(=O)[C@@H](NC(=O)[C@H](CCSC)NC(C)=O)[C@@H](C)O)[C@@H](C)CC)[C@@H](C)O)C(N)=O [peptide 10, AcMTWEEWDKKIEEYTKKI—NH2] (Ac-MTWEEWDKKIEEYTKKI-NH2)
Binding to IZN17, result in words [1]: bound IZN17 with a similar affinity as 9 | Cell fusion inhibition, result in words ([2]; concentrations up to 200 μM): remained ineffective in the cell culture assay

CC[C@H](C)[C@H](NC(=O)[C@H](CCCCN)NC(=O)[C@H](CCCCN)NC(=O)[C@@H](NC(=O)[C@H](Cc1ccc(O)cc1)NC(=O)[C@H](CCC(=O)O)NC(=O)[C@H](CCC(=O)O)NC(=O)[C@@H](NC(=O)[C@H](CCCCN)NC(=O)[C@H](CCCCN)NC(=O)[C@H](CC(=O)O)NC(=O)[C@H](Cc1c[nH]c2ccccc12)NC(=O)[C@H](CCC(=O)O)NC(=O)[C@H](CCC(=O)O)NC(=O)[C@H](Cc1c[nH]c2ccccc12)N1CC=CCCC(=O)N[C@@H](CCSC)C(=O)N[C@@H]([C@@H](C)O)C1=O)[C@@H](C)CC)[C@@H](C)O)C(N)=O [compound 9, XMTWEEWDKKIEEYTKKI]
EC50 ([2]; overnight coculture at 37° C., β-galactosidase readout, read-out: EC50, inhibition of gp41-mediated cell fusion): 43 µM

Suc-MTWMEWDERINNYTC^Flu-NH2 [peptide 12]
Kd [3]: 24 µM

CC[C@H](C)[C@H](NC(=O)[C@H](CCC(=O)O)NC(=O)[C@H](CCCNC(=N)N)NC(=O)[C@H](CC(=O)O)NC(=O)[C@H](Cc1c[nH]c2ccccc12)NC(=O)[C@H](CCC(=O)O)NC(=O)[C@H](CCSC)NC(=O)[C@H](Cc1c[nH]c2ccccc12)NC(=O)[C@@H](NC(=O)[C@H](CCSC)NC(C)=O)[C@@H](C)O)C(=O)N[C@@H](CC(N)=O)C(=O)N[C@@H](CC(N)=O)C(=O)N[C@@H](Cc1ccc(O)cc1)C(=O)N[C@H](C(N)=O)[C@@H](C)O [peptide 1, AcMTWMEWDREINNYT-NH2, reference compound] (Ac-MTWMEWDREINNYT-NH2)
Kd ([1]; PBS pH 7.4, 0.1% pluronic F-68, 25° C., 25 μM IZN17, 15 nM probe 12, values much lower than probe Kd are upper limits, read-out: Kd, binding affinity for IZN17 (competition assay)): 37 µM | Helicity by CD, result in words [4]: unstructured or very weakly helical | Activity in cell-cell fusion assays as previously shown (Sia et al.) [5]: ineffective in cell-cell fusion assays
